Results: ChEMBL document CHEMBL1201862, “PubChem BioAssay data set” (2004)
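Following 48 hours of exposure in 96-well plates, responses at five concentrations were used to interpolate endpoints linearly. At the GI50, growth is halved.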 The source made the active and inactive calls. Rule as the data show it: active = GI50 up to about 1.1 µM and inactive = higher.

How the values were obtained:
Test in all cases: growth of human tumour cells (NCI), 48 h
SR = system: SR
SW-620 = system: SW-620
M14 = system: M14
NCI-H522 = system: NCI-H522
HCC 2998 = system: HCC 2998
SF-295 = system: SF-295
Malme-3M = system: Malme-3M
CAKI-1 = system: CAKI-1
786-0 = system: 786-0
SK-MEL-5 = system: SK-MEL-5
HCT-15 = system: HCT-15
NCI-H23 = system: NCI-H23
A549 = system: A549
NCI-H460 = system: NCI-H460
RXF 393 = system: RXF 393

Row | SMILES | GI50 (SR) | GI50 (SW-620) | GI50 (M14) | GI50 (NCI-H522) | GI50 (HCC 2998) | GI50 (SF-295) | GI50 (Malme-3M) | GI50 (CAKI-1) | GI50 (786-0) | GI50 (SK-MEL-5) | GI50 (HCT-15) | GI50 (NCI-H23) | GI50 (A549) | GI50 (NCI-H460) | GI50 (RXF 393)
1 | CC1=NN(C(=O)Cc2ccccc2)C(=O)/C1=C\C=C\c1ccccc1 | > 100 µM (inactive) | > 100 µM (inactive) | > 100 µM (inactive) | > 100 µM (inactive) | > 100 µM (inactive) | > 100 µM (inactive) | > 100 µM (inactive) | > 100 µM (inactive) | > 100 µM (inactive) | > 100 µM (inactive) | > 100 µM | > 100 µM (inactive) | > 100 µM (inactive) |  | 
2 | O=C(O)CP(=S)(S)c1ccccc1 (stereo not given) | > 100 µM (inactive) | > 100 µM (inactive) | > 100 µM (inactive) | > 100 µM (inactive) |  | > 100 µM (inactive) | > 100 µM (inactive) | > 100 µM (inactive) | > 100 µM (inactive) | > 100 µM (inactive) |  | > 100 µM (inactive) | > 100 µM (inactive) | > 100 µM (inactive) | > 100 µM (inactive)
3 | COc1ccc(S(=O)(=O)N/N=C/c2cc(I)cc([N+](=O)[O-])c2O)cc1OC |  | 47.8 µM (inactive) | 36.1 µM (inactive) |  | 50.6 µM (inactive) | 29 µM (inactive) | 28.7 µM (inactive) | 31.6 µM (inactive) | 45.9 µM (inactive) | 19.8 µM (inactive) | 36.6 µM |  | > 100 µM (inactive) | 55 µM (inactive) | 
4 | COC1=CC23C=CC1[C@@H](c1ccccc1)C2=C(C)C(=O)N3C(=O)NC1CCCCC1 (stereo not given in full) | 20.2 µM (inactive) | 19.5 µM (inactive) | 19 µM (inactive) | 18.9 µM (inactive) | 21.6 µM (inactive) | 22.4 µM (inactive) |  | 16.9 µM (inactive) | 15.5 µM (inactive) | 14.9 µM (inactive) | 5.11 µM | 18.5 µM (inactive) | 24.7 µM (inactive) | 20.1 µM (inactive) | 3.45 µM (inactive)
5 | COc1cc(C(C)c2cc3c(cc2OCCCCOc2cc4c(cc2C(C)c2cc(OC)c(OC)c(OC)c2)OCO4)OCO3)cc(OC)c1OC (stereo not given) | 10.2 µM (inactive) | 26.9 µM (inactive) | 24.5 µM (inactive) |  | 29.5 µM (inactive) | 26.5 µM (inactive) | 35.6 µM (inactive) | > 100 µM (inactive) | 49.2 µM (inactive) | 29.1 µM (inactive) | 34.8 µM | 40.4 µM (inactive) | 48.4 µM (inactive) | 45.3 µM (inactive) | 17.6 µM (inactive)
6 | C1=CC=C2NCCOCC/N=C3/C=CC=CC=C3NCCOCC/N=C\2C=C1 |  | 32.4 µM (inactive) | 17.8 µM (inactive) | > 100 µM (inactive) | 67.1 µM (inactive) | 52 µM (inactive) | 21.5 µM (inactive) | > 100 µM (inactive) | > 100 µM (inactive) | 48.6 µM (inactive) | 41.3 µM | > 100 µM (inactive) | 63.7 µM (inactive) | 30.4 µM (inactive) | 
7 | O=C1C2Cc3ccccc3CN2C(=O)N1CN1CCN(CN2C(=O)C3Cc4ccccc4CN3C2=O)CC1 (stereo not given) |  | > 100 µM (inactive) |  | > 100 µM (inactive) | > 100 µM (inactive) | > 100 µM (inactive) | > 100 µM (inactive) | > 100 µM (inactive) | > 100 µM (inactive) | > 100 µM (inactive) | > 100 µM | > 100 µM (inactive) | > 100 µM (inactive) | > 100 µM (inactive) | > 100 µM (inactive)
8 | CC1(C)CCc2cc3c(cc2O1)OC(C)(C)C1c2c(ccc4c2CCC(C)(C)O4)OC31 (stereo not given) | > 100 µM (inactive) | > 100 µM (inactive) | 42.9 µM (inactive) | > 100 µM (inactive) |  | > 100 µM (inactive) |  | 99.8 µM (inactive) | > 100 µM (inactive) | > 100 µM (inactive) | > 100 µM | > 100 µM (inactive) | > 100 µM (inactive) | > 100 µM (inactive) | 
9 | Oc1cc(-c2c[nH]c3ccccc23)nc2cc3c(cc12)OCO3 | > 100 µM (inactive) | > 100 µM (inactive) | > 100 µM (inactive) |  | > 100 µM (inactive) | 92.3 µM (inactive) | 23.6 µM (inactive) |  | > 100 µM (inactive) | > 100 µM (inactive) | > 100 µM | > 100 µM (inactive) | > 100 µM (inactive) | > 100 µM (inactive) | > 100 µM (inactive)
10 | C/C(=N\N(C)C)C(CN1CCCCC1)C(c1ccccc1)c1c(O)c2ccccc2oc1=O (stereo not given) | > 100 µM (inactive) | > 100 µM (inactive) | > 100 µM (inactive) | > 100 µM (inactive) |  | > 100 µM (inactive) | > 100 µM (inactive) | > 100 µM (inactive) | > 100 µM (inactive) | > 100 µM (inactive) | > 100 µM | > 100 µM (inactive) | > 100 µM (inactive) | > 100 µM (inactive) | > 100 µM (inactive)
11 | Cc1ccc(NS(=O)(=O)c2cc(C(C)(C)C)ccc2OCCOCCOCCOc2ccc(C(C)(C)C)cc2S(=O)(=O)Nc2ccc(C)cc2)cc1 |  | > 100 µM (inactive) | > 100 µM (inactive) |  | > 100 µM (inactive) | > 100 µM (inactive) | > 100 µM (inactive) | > 100 µM (inactive) | > 100 µM (inactive) | > 100 µM (inactive) | > 100 µM | > 100 µM (inactive) | > 100 µM (inactive) | > 100 µM (inactive) | > 100 µM (inactive)
12 | COC(=O)C1=C(C)N(NC(N)=O)C2(N)N(NC(N)=O)C(C)=C(C(=O)OC)C12C#N (stereo not given) |  | > 100 µM (inactive) | > 100 µM (inactive) | > 100 µM (inactive) | > 100 µM (inactive) | > 100 µM (inactive) | > 100 µM (inactive) | > 100 µM (inactive) | > 100 µM (inactive) |  | > 100 µM | > 100 µM (inactive) | > 100 µM (inactive) | > 100 µM (inactive) | 
13 | S=c1nc2c(c[nH]1)C1c3ccccc3C2c2ccccc21 | 34 µM (inactive) | > 100 µM (inactive) | 79.8 µM (inactive) | 46 µM (inactive) |  | 40.1 µM (inactive) | > 100 µM (inactive) |  | > 100 µM (inactive) | 73.8 µM (inactive) | 80.2 µM | > 100 µM (inactive) | 68.9 µM (inactive) | > 100 µM (inactive) | 35.2 µM (inactive)
14 | CC1=C(C(=O)Nc2ccc([N+](=O)[O-])cc2)C(c2cccc([N+](=O)[O-])c2)C(C(=O)Nc2ccc([N+](=O)[O-])cc2)=C(C)N1 |  | 31.9 µM (inactive) | 24.3 µM (inactive) | 20.5 µM (inactive) | 25.6 µM (inactive) | 30.1 µM (inactive) | 25.2 µM (inactive) |  | 48.2 µM (inactive) |  | 61.7 µM | 13.3 µM (inactive) | 29.7 µM (inactive) | 27.7 µM (inactive) | 16.2 µM (inactive)
15 | Nc1ncnc2c1ncn2CC(O)CO (stereo not given) |  | > 100 µM (inactive) | > 100 µM (inactive) | > 100 µM (inactive) | 86.7 µM (inactive) | > 100 µM (inactive) | > 100 µM (inactive) | > 100 µM (inactive) | > 100 µM (inactive) | > 100 µM (inactive) | > 100 µM | > 100 µM (inactive) | > 100 µM (inactive) | > 100 µM (inactive) | > 100 µM (inactive)
16 | O=c1ccn(C2(CO)C=C(CO)C(O)C2O)c(=O)[nH]1 (stereo not given) | > 25.7 µM (inactive) | > 25.7 µM (inactive) | > 25.7 µM (inactive) | > 25.7 µM (inactive) | > 25.7 µM (inactive) |  | > 25.7 µM (inactive) | > 25.7 µM (inactive) | > 25.7 µM (inactive) | > 25.7 µM (inactive) | > 25.7 µM |  | > 25.7 µM (inactive) | > 25.7 µM (inactive) | > 25.7 µM (inactive)
17 | CC(C)(C)C1CCC2(CC1)c1[nH]c3ccccc3c1C1(CCC(C(C)(C)C)CC1)c1[nH]c3ccccc3c12 (stereo not given) |  | 39.4 µM (inactive) | > 100 µM (inactive) | > 100 µM (inactive) | > 100 µM (inactive) | > 100 µM (inactive) | > 100 µM (inactive) | > 100 µM (inactive) | 7.08 µM (inactive) | > 100 µM (inactive) | > 100 µM | > 100 µM (inactive) | > 100 µM (inactive) | > 100 µM (inactive) | > 100 µM (inactive)
18 | CON1C(=O)C2(CCCCC2)C(=O)C12C=CC(C)CC2 (stereo not given) |  | > 100 µM (inactive) | > 100 µM (inactive) | 95.1 µM (inactive) | > 100 µM (inactive) | > 100 µM (inactive) | > 100 µM (inactive) | > 100 µM (inactive) | > 100 µM (inactive) | 38 µM (inactive) | > 100 µM | > 100 µM (inactive) | > 100 µM (inactive) | > 100 µM (inactive) | 30.7 µM (inactive)
19 | COC(=O)C1=C(c2ccc(OC)c(OC)c2)OC(c2cc(OC)c(OC)c(OC)c2)C1 (stereo not given) |  | 41.6 µM (inactive) | 65.6 µM (inactive) |  | > 100 µM (inactive) | 23 µM (inactive) | 42.4 µM (inactive) | 60.3 µM (inactive) | 20 µM (inactive) | 29.3 µM (inactive) |  | 99.3 µM (inactive) | > 100 µM (inactive) | > 100 µM (inactive) | 22.1 µM (inactive)
20 | COC12CC(O)=C(C(C)=O)C(=O)C1(C)c1c(OC(C)=O)c(C)c(O)c(C(C)=O)c1O2 (stereo not given) | 18.5 µM (inactive) | 22.7 µM (inactive) | 22.5 µM (inactive) |  | 18.3 µM (inactive) | 8.09 µM (inactive) | 17.9 µM (inactive) | 15.7 µM (inactive) | 18.9 µM (inactive) |  | 13.6 µM | 4.86 µM (inactive) | 9.44 µM (inactive) | 13.2 µM (inactive) | 14.7 µM (inactive)
